Six molecules from ChEMBL document CHEMBL3102791, “Synthesis and biological evaluation of 2-aminothiazole derivatives as antimycobacterial and antiplasmodial agents” (Bioorg Med Chem Lett, 2014) can be followed below.

Common to all, as to conditions: read-out: Stability
Series [1] in a line: Metabolic stability in BALB/c mouse liver microsomes assessed as compound remaining at 1 uM after 30 mins by HPLC-MS/MS analysis. Type of series: ADME, Microsome.
The nature of series [2]: Metabolic stability in human liver microsomes assessed as compound remaining at 1 uM after 30 mins by HPLC-MS/MS analysis. Type of series: ADME.
Series [3] is described as follows: Metabolic stability in rat liver microsomes assessed as compound remaining at 1 uM after 30 mins by HPLC-MS/MS analysis. Type of series: ADME.

Take `O=C(Nc1nc(-c2ccccn2)cs1)c1ccc(Cl)cc1`: the values for the remaining at 0.5 h, 1 µM in series [1], in series [2] and in series [3] were 1.33%, 8.4% and 42.1%, respectively.

As to `N#Cc1ccc(C(=O)Nc2nc(-c3ccccn3)cs2)cc1`, the remaining at 0.5 h, 1 µM in series [1] worked out at 1.61%; in series [2], 24.1%; in series [3] it was 64.6%.

Turning to `O=C(Nc1nc(-c2ccccn2)cs1)c1cccc(Br)c1`, the remaining at 0.5 h, 1 µM is 82.4% in series [1], more than 99% in series [2] and more than 99% in series [3].

Consider `O=C(Nc1nc(-c2ccccn2)cs1)c1ccc(F)cc1`, for which the remaining at 0.5 h, 1 µM in series [1] was 3.61%; in series [2] it was 14.2%; in series [3], 72.1%.

With `O=C(Nc1nc(-c2ccccn2)cs1)c1ccncc1`, the remaining at 0.5 h, 1 µM amounted to 3.71% in series [1], 53.8% in series [2] and 47.8% in series [3].

`O=C(Nc1nc(-c2ccccn2)cs1)c1ccccc1`: the remaining at 0.5 h, 1 µM came out at 7.6% in series [1], 27.5% in series [2] and 54.5% in series [3].
